PubChem BioAssay AID1963981 (Molecular Pharmacology Branch, DTP, NCI, 2024)

System: 354836-022-R-J1-PDC multicell spheroid viability
Assay: Anticancer human tumor 354836-022-R-J1-PDC patient-derived head and neck squamous cell carcinoma cell line growth inhibition [PI3K]
Details: for viability, T/C: stronger effect = lower value; active = viability on the fitted dose curve at most 10% of control; inactive = the rest
In short: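 Three cell types, namely tumor cells, endothelial cells and mesenchymal stem cells, formed each spheroid. Combinations with four PI3K inhibitors were screened at clinically achievable concentrations decreasing by half-log, and spheroid viability was recorded.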
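Note: spheroids exposed to agents for seven days before the viability read.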

CC(Nc1ccc2c(c1)OCCn1cc(N3C(=O)OCC3C(F)F)nc1-2)C(N)=O (stereo not given)
inactive: viability, T/C (compound 0.00316 µM) 99.7% [middle of 8 runs] | viability, T/C (compound 0.01 µM) 96.8% [middle of 8 runs] | viability, T/C (compound 0.0316 µM) 99.1% [middle of 8 runs] | viability, T/C (compound 0.1 µM) 87.8% [middle of 7 runs] | viability, T/C (compound 0.316 µM) 76.5% [middle of 8 runs] | viability, T/C (compound 1 µM) 53.6% [middle of 8 runs]
> 1 µM: IC50 (compound alone, run of 06/12/2023)

CCCS(=O)(=O)Nc1ccc(F)c(C(=O)c2c[nH]c3ncc(-c4ccc(Cl)cc4)cc23)c1F
inactive: viability, T/C (compound 0.1 µM) 109% [middle of 4 runs] | viability, T/C (compound 0.316 µM) 104% [middle of 4 runs] | viability, T/C (compound 1 µM) 91.5% [middle of 4 runs] | viability, T/C (compound 3.16 µM) 86% [middle of 4 runs] | viability, T/C (compound 10 µM) 24.8% [middle of 4 runs]
6.06 µM [middle of 4 runs]: IC50 (curve of compound)

C[C@@H](NC(=O)c1ncnc(N)c1Cl)c1ncc(C(=O)Nc2cc(C(F)(F)F)c(Cl)cn2)s1 + CC(Nc1ccc2c(c1)OCCn1cc(N3C(=O)OCC3C(F)F)nc1-2)C(N)=O
> 10 µM: IC50 (curve of first compound, second compound 0.00316 µM) | IC50 (curve of first compound, second compound 0.01 µM) | IC50 (curve of first compound, second compound 0.0316 µM) | IC50 (curve of first compound, second compound 0.1 µM) | IC50 (curve of first compound, second compound 0.316 µM) | IC50 (curve of first compound, second compound 1 µM)
inactive: viability, T/C (second compound 0.00316 µM, first compound 0.0316 µM) 98.4% | viability, T/C (second compound 0.00316 µM, first compound 0.1 µM) 92.4% | viability, T/C (second compound 0.00316 µM, first compound 0.316 µM) 103% | viability, T/C (second compound 0.00316 µM, first compound 1 µM) 109% | viability, T/C (second compound 0.00316 µM, first compound 3.16 µM) 107% | viability, T/C (second compound 0.00316 µM, first compound 10 µM) 67.5% | viability, T/C (second compound 0.01 µM, first compound 0.0316 µM) 108% | viability, T/C (second compound 0.01 µM, first compound 0.1 µM) 90.9% | viability, T/C (second compound 0.01 µM, first compound 0.316 µM) 91.4% | viability, T/C (second compound 0.01 µM, first compound 1 µM) 104% | viability, T/C (second compound 0.01 µM, first compound 3.16 µM) 110% | viability, T/C (second compound 0.01 µM, first compound 10 µM) 64.1% | viability, T/C (second compound 0.0316 µM, first compound 0.0316 µM) 92.1% | viability, T/C (second compound 0.0316 µM, first compound 0.1 µM) 93.1% | viability, T/C (second compound 0.0316 µM, first compound 0.316 µM) 102% | viability, T/C (second compound 0.0316 µM, first compound 1 µM) 111% | viability, T/C (second compound 0.0316 µM, first compound 3.16 µM) 103% | viability, T/C (second compound 0.0316 µM, first compound 10 µM) 71.9% | viability, T/C (second compound 0.1 µM, first compound 0.0316 µM) 82.2% | viability, T/C (second compound 0.1 µM, first compound 0.1 µM) 93.8% | viability, T/C (second compound 0.1 µM, first compound 0.316 µM) 94.9% | viability, T/C (second compound 0.1 µM, first compound 1 µM) 92.3% | viability, T/C (second compound 0.1 µM, first compound 3.16 µM) 88.5% | viability, T/C (second compound 0.1 µM, first compound 10 µM) 71.6% | viability, T/C (second compound 0.316 µM, first compound 0.0316 µM) 74.4% | viability, T/C (second compound 0.316 µM, first compound 0.1 µM) 75.9% | viability, T/C (second compound 0.316 µM, first compound 0.316 µM) 82.9% | viability, T/C (second compound 0.316 µM, first compound 1 µM) 84.6% | viability, T/C (second compound 0.316 µM, first compound 3.16 µM) 88.1% | viability, T/C (second compound 0.316 µM, first compound 10 µM) 58.1% | viability, T/C (second compound 1 µM, first compound 0.0316 µM) 63% | viability, T/C (second compound 1 µM, first compound 0.1 µM) 62.2% | viability, T/C (second compound 1 µM, first compound 0.316 µM) 62.9% | viability, T/C (second compound 1 µM, first compound 1 µM) 65.2% | viability, T/C (second compound 1 µM, first compound 3.16 µM) 74.5% | viability, T/C (second compound 1 µM, first compound 10 µM) 53.6%
